The values below are quoted from earlier work in patent US7253172B2, “Dipeptidyl peptidase inhibitors for the treatment of diabetes” (Merck & Co., Inc., priority 2001, dated 2007).

In one data set the target is T1, DP-IV (Homo sapiens, UniProt P27487).
T1 construct: GRF is rapidly degraded in plasma to GRF[3–44]

For a further data set, the system named is cardiac allograft. The following applies: rats; doubled from day 7 to day 14.
For another data set, the system named is hematopoiesis. The following applies: mouse, cyclophosphamide-induced neutropenia.

T1 sequence (P27487 39-766 limits assumed): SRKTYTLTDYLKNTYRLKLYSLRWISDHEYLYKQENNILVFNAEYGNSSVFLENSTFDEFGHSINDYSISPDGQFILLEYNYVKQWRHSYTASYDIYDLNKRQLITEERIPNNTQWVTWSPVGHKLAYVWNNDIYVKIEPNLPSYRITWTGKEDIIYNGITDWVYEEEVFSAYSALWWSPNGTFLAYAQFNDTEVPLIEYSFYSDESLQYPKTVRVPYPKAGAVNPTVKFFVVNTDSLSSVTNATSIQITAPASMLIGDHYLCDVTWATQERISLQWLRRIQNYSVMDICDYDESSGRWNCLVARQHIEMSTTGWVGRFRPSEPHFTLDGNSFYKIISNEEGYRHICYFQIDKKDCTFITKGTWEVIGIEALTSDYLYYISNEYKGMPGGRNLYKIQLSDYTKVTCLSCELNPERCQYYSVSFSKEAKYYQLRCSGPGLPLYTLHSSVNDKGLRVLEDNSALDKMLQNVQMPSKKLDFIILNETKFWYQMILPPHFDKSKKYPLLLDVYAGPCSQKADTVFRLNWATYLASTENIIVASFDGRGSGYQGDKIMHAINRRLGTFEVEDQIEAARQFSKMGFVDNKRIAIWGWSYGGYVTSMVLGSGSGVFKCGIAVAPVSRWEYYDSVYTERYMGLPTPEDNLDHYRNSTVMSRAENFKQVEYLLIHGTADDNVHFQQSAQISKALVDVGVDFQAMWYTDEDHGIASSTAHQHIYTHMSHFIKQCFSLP

Regarding diprotin A, on DP-IV, the “degradation of GRF in plasma to GRF[3–44]” value is on record as “prevented”.

For `CC(C)N1CCC(c2ccccc2)(c2ccccc2)CC1` [Prodipine, Pro-Pro-diphenyl-phosphonate], in the data set on cardiac allograft, the cardiac allograft survival was 14 day.

Turning to `CC(C)[C@H](N)C(=O)N1CCC[C@H]1B(O)O` [Val-Boro-Pro], the hematopoiesis entry in the data set with hematopoiesis was “stimulates hematopoiesis”.
